{"source": "patent US5460797A", "about": "“Method for fixing tissues and cells for analysis using oxazolidine compounds” (Streck Laboratories, Inc., priority 1994, dated 1995)", "key": {"RBC's": {"system": "RBC's", "assay": "Relative RBC fixation detected by adding RBC lysing agent", "format": "cell-based", "conditions": "6% w/v solution, 24 hours, 22° C", "method": "(§1) A 6% w/v solution of each compound was used and samples tested at 24 hours (22° C). […] Relative RBC fixation was detected by adding known RBC lysing agent. […] Fixing is relative and depends on how long you want cells or tissues to remain fixed."}, "WBC's": {"system": "WBC's", "assay": "WBC fixation (cells do not disintegrate or clump after removal of compound)", "format": "cell-based", "conditions": "6% w/v solution, 24 hours, 22° C", "method": "as §1"}, "[1]": {"assay": "Formaldehyde content or release", "format": "physicochemical"}, "6C3HED lymphosarcoma": {"system": "6C3HED lymphosarcoma", "assay": "Tumor immunization with fixed ascites cells and challenge with viable cells", "format": "in vivo, C3H mice", "conditions": "cells fixed in 3% agent; two immunizations; challenge 100,000 viable cells i.p.; \">65\" is given as \"No deaths at 65 days\"", "method": "(§2) Tumor Immunization. 6C3HED lymphosarcoma was grown in C3H mice as ascites (ascites cause collection of fluid in the peritoneal cavity). The ascites cells were then washed in phosphate buffered saline (PBS) containing 3% IDU, 3% Glydant, or 3% Dimethylol urea. The cells were then placed at 6° C. for 48 hours.\nAs a control for immunization, cells were also washed into PBS containing 3% para formaldehyde and held under the same conditions. After 48 hours, all the cell groups were washed into PBS to remove the fixatives. The cell count was adjusted to 200,000/ml. Five C3H mice were injected with each of the cell groups for the first immunization. The procedure was repeated two weeks later.\nThe immunized mice were challenged with 100,000 viable 63HED ascites cells by intraperitoneal injection. The efficacy of the immunization was determined by the average death time for each group of mice."}, "[2]": {"assay": "Toxicity studies comparing diazolidinyl urea with formaldehyde", "format": "in vivo", "conditions": "for LD50: route and species not given", "from_the_text": "Unlike the typical histological fixing agents, the active agents of the invention have extremely low toxicity. For example, toxicity studies comparing diazolidinyl urea of the invention with formaldehyde of the prior art show the following: […]"}, "albumin": {"system": "albumin", "conditions": "24 hours incubation", "method": "Formaldehyde cross-links with itself and proteins to obscure the antigen. To determine if this is true, diazolidinyl urea was added to the protein, albumin."}, "[3]": {"system": "6C3HED lymphosarcoma ascites cells", "assay": "Vital staining of ascites cells held in fixative 48 hours", "format": "cell-based, C3H mice", "conditions": "3% in PBS, 6° C.", "method": "as §2"}, "human white blood cells": {"system": "human white blood cells", "assay": "Stabilization of white blood cells for flow cytometry (leukocyte positive control)", "format": "cell-based", "from_the_text": "Leukocyte Positive Control Check for Antigen-Antibody Studies. Positive control methods are needed to verify the performance of reagents, preparation methods, staining procedures as well as the performance of the flow cytometer instrumentation itself. This requires a preparation of human white blood cells, preferably with a mixed distribution of leukocytes (lymphocytes, monocytes, and granulocytes), to evaluate the performance of the procedure before it is used to evaluate subject tissues, cells, or cell components. While much of the methodology used in this procedure is familiar to those skilled in the art, this invention is novel in its use of imidazolidinyl urea (IDU) as a cell stabilizer, the use of polyethylene glycol to reduce damage to the white blood cells during processing, the use of PMSF to inhibit protease activity, and the process itself.\nThe invention discloses a new method of producing a positive control check material with significant advances over the prior art. Production is begun by placing one pack of human white blood cells, obtainable from commercial blood banks, in each bottle of the centrifuge. Samples from each pack are placed into a plastic tube for screening on the flow cytometer. Because of the considerable variation from donor to donor in cluster designation antigen sites, only packs with similar properties are pooled. Each product pool should be limited to a particular ABO blood type to prevent clumping as a result of a histoin-compatibility reaction between the cells. The samples are placed into plastic tubes rather than glass because unfixed white blood cells may be activated by the glass causing them to adhere to the glass and each other.\nThe cells are prefixed 1:1 with 1% IDU in phosphate buffered saline ethylenediaminetetraacetic acid (PBS-EDTA) at 6° C. for one hour. […] The cells and all diluents used in the processing must be kept at 6° C. at all times by use of refrigeration and a chiller bath to reduce the amount of cell damage which alters the scattergram.\nThe bottle are next centrifuged at 900 rpm for 10 minutes, and the supernatant is removed. This angular velocity is sufficient to pellet the white blood cells without damaging them. Ammonium chloride tris, 200 ml/bottle set at 6° C. for 20-30 minutes, is then used to lyse the red blood cells.\nA second centrifugation follows, again at 900 rpm for 10 minutes, and the supernatant is removed. Next 250 ml/bottle of ammonium chloride tris are added at 6° C. or 45-60 minutes, with 60 minutes usually ensuring complete lysis of the red blood cells.\nThe material is then centrifuged a third time at 900 rpm for 10 minutes and then the supernatant is removed. […]"}, "tetanus toxin": {"system": "tetanus toxin", "format": "in vivo, Swiss mice"}, "[4]": {"conditions": "solution (Glydant), as such (Suttocide)"}}, "note": "Where two headings read alike, the source gives them in different places.", "data": [{"compound": "O=[N+]([O-])C(Br)(CO)CO", "note": "[Bronopol, 2-bromo-2-nitropropane-1,3-diol]", "values": [{"measurement": "Fixation of RBC's", "setting": "RBC's", "value": "Fixes both RBC's and WBC's"}, {"measurement": "Fixation of WBC's", "setting": "WBC's", "value": "Fixes both RBC's and WBC's"}, {"measurement": "Formaldehyde release", "setting": "[1]", "value": "Decomposition liberates formaldehyde"}]}, {"compound": "O=C(NCO)NCO", "note": "[Dimethylol urea, dimethylol urea]", "values": [{"measurement": "Average Death Days", "setting": "6C3HED lymphosarcoma", "value": "> 65", "unit": "days"}]}, {"compound": "C=O", "note": "[Formaldehyde, formaldehyde, reference compound]", "values": [{"measurement": "Dermal Toxicity", "setting": "[2]; in vivo", "value": 270, "unit": "mg/kg"}, {"measurement": "Inhalation Toxicity", "setting": "[2]; in vivo", "value": 500, "unit": "mg/kg"}, {"measurement": "LD50", "setting": "[2]; in vivo, read-out: LD50", "value": 800, "unit": "mg/kg"}, {"measurement": "Disc-gel electrophoresis result with albumin", "setting": "albumin", "value": "a large number of multimers and insoluble proteins result"}]}, {"compound": "CC1(C)C(=O)N(CO)C(=O)N1CO", "note": "[Glydant, Dimethylol-5,5-dimethylhydantoin]", "values": [{"measurement": "Viability by vital staining", "setting": "[3]", "value": "none of the cells were viable"}, {"measurement": "Average Death Days", "setting": "6C3HED lymphosarcoma", "value": "> 65", "unit": "days"}, {"measurement": "Fixation of RBC's", "setting": "RBC's", "value": "Fixes both RBC's and WBC's"}, {"measurement": "Fixation of WBC's", "setting": "WBC's", "value": "Fixes both RBC's and WBC's"}, {"measurement": "Formaldehyde content", "setting": "[1]; [4]", "value": 2.1, "unit": "%"}]}, {"compound": "O=C(O)CNCO", "note": "[Suttocide, Sodium hydroxymethyl glycinate]", "values": [{"measurement": "Fixation of RBC's", "setting": "RBC's", "value": "Fixes RBC's and WBC's"}, {"measurement": "Fixation of WBC's", "setting": "WBC's", "value": "Fixes RBC's and WBC's"}, {"measurement": "Formaldehyde content", "setting": "[1]; [4]", "value": 1, "unit": "%"}]}, {"compound": "diazolidinyl urea", "values": [{"measurement": "Dermal Toxicity", "setting": "[2]; in vivo", "value": 2000, "unit": "mg/kg"}, {"measurement": "Inhalation Toxicity", "setting": "[2]; in vivo", "value": "None"}, {"measurement": "LD50", "setting": "[2]", "value": 2570, "unit": "mg/kg"}, {"measurement": "Disc-gel electrophoresis result with albumin", "setting": "albumin", "value": "no change in the rate of migration of the protein"}, {"measurement": "Fixation of RBC's", "setting": "RBC's", "value": "Fixes both RBC's and WBC's"}, {"measurement": "Fixation of WBC's", "setting": "WBC's", "value": "Fixes both RBC's and WBC's"}, {"measurement": "Formaldehyde content", "setting": "[1]", "value": "1-2 ppm"}]}, {"compound": "imidazolidinyl urea", "values": [{"measurement": "Effect on white blood cells, prefixation", "setting": "human white blood cells; 1% IDU in PBS-EDTA, 1:1, 6° C., one hour", "value": "stabilize the white blood cells without interfering with the lysis of the red blood cells"}, {"measurement": "Effect on cells, fixation", "setting": "human white blood cells; 3% IDU, 6° C., 2 days", "value": "stabilizes the cells for use on the flow cytometer"}, {"measurement": "Effect on cells, fixation at higher concentrations", "setting": "human white blood cells; IDU concentrations higher than 3%", "value": "causing cells to lose the cluster designation marker and produce scatterplot changes"}, {"measurement": "Effect on cells, fixation at lower concentrations", "setting": "human white blood cells; IDU concentrations lower than 3%", "value": "reducing stability"}, {"measurement": "Viability by vital staining", "setting": "[3]", "value": "none of the cells were viable"}, {"measurement": "Average Death Days", "setting": "6C3HED lymphosarcoma", "value": "> 65", "unit": "days"}, {"measurement": "percent increase in antibody titer over formalin, 14 Days", "setting": "tetanus toxin; 14 days", "value": 200, "unit": "%"}, {"measurement": "percent increase in antibody titer over formalin, 28 Days", "setting": "tetanus toxin; 28 days", "value": 560, "unit": "%"}, {"measurement": "Fixation of RBC's", "setting": "RBC's", "value": "Fixes both RBC's and WBC's"}, {"measurement": "Fixation of WBC's", "setting": "WBC's", "value": "Fixes both RBC's and WBC's"}, {"measurement": "Formaldehyde release", "setting": "[1]", "value": "Decomposition releases formaldehyde"}]}, {"compound": "para formaldehyde [Control, reference compound]", "values": [{"measurement": "Average Death Days", "setting": "6C3HED lymphosarcoma", "value": 10, "unit": "days"}]}]}
